Source: patent publication US20020045771A1, “Family of canadensol taxanes, the semi-synthetic preparation and therapeutic use thereof” (Institut National de la Recherche Scientifique, priority 1996, published 2002)
Entries after “also recorded” stand apart in the source; their conditions may differ.

Columns and labels:
[1] = system: A2780 cells; experiment: MTT cytotoxicity assay; format: cell-based, human; conditions: for % (absorbance relative to control) / Abs.: 72 h; for Abs.: absorbance at 570 nm (MTT); for IC50: A2780, 72 h continuous treatment, MTT
Protocol: 1—Cell lines and cell culture. The human ovarian adenocarcinoma cell line A2780 was used to evaluate the antiproliferative activity of taxoids. These cells were grown in either RPMI medium supplemented with 10% fetal bovine serum and penicillin-streptomycin antibiotics. Cells were maintained in culture at 37° C. in an atmosphere of 5% CO2.
2—Cytotoxicity assay. Exponentially growing cells (2-3×10^3 cells/[…]) were seeded in 96-well plates and incubated for 16 h. Cells were then treated continuously with the extracts. 72 h later, cell survival was evaluated by replacing the culture media with […] fresh medium containing 10 mM 4-(2-hydroxyethyl)-1 -piperazineethamesulfonic acid buffer, pH 7.4. and […] of 2.5 mg/ml of 3-(4,5-dimethylthiazo-2-yl)-2,5-diphenyltetrazolium bromide (MTT) in PBS, pH 7.4, were then added. After as 3-4 h of incubation at 37° C., the medium and MTT were removed, and […] of DMSO was added to dissolve the precipitate of reduced MTT, followed by addition of […] glycine buffer (0.1M glycine plus 0.1M NaCl, pH 10.5). The formazan crystals were then dissolved and the absorbance was determined at 570 nm with a microplate reader (BIORAD, model 450). The MTT assay distinguished between viable and non-viable cells on the basis for the requirement of physiologically active mitochondria to metabolize the MTT only in viable cells. The IC50 was calculated as the concentration of drug causing a 50% inhibition in the absorbance compared to cells treated with solvent alone, Table I.

[2] = system: DA3 mammary adenocarcinoma tumors; experiment: In vivo study using DA3 cell model (tumour volume); parameters: species or system mouse
Excerpt: Origin: The DA3 cell line used in this study was derived from a hyperplastic mammary outgrowth (preneoplastic lesion) treated with 7,12-dimethylbenzanthracene (DMBA). DMBA-treated explant was then transplanted into the mammary glands of a female BALB/c mouse, and the resulting tumor was used to establish the DA3 cell line. DA3 is an immunogenic and non-metastatic mammary adenocarcinoma.
Source: The cell line used in our study was originally obtained from Dr. Medina in 1993. Stocks of these cells were generated and stored during early passages in liquid nitrogen. One vial from this early stock was cultured and cells generated were used to confirm the absence of viral and mycoplasma infections. Cells were then propagated and stocks of these cells were established and stored in liquid nitrogen for further studies with Dup compounds.
Cell culture: DA3 cells were maintained in RPMI 1640 medium supplemented with 1M mercaptoethanol, 1M Hepes buffer solution, […] sodium pyruvate, 200 mM L-glutamine, 10 mM non-essential amino acids, 1M vitamins, 10% fetal bovine serum, 1% penicillin-streptomycin. Cells were maintained at 37° C. under 5% CO2.
Animal. […] Mice were maintained at the Lady Davis Institute [LDI] Animal Care Facility.
Tumor cell inoculation and treatments. After one week acclimatisation, mice were randomized into a group of 5 per cage. Cages were randomly assigned to specific experimental groups. The mice were then labeled by numbers using the “ear punching” method. DA3 cells were transplanted subcutaneously to mice, as a suspension of tumor cells [1×10^6 viable cells per 0.1 ml], in the right flank. All animals were inoculated at the same site.
For tumor induction, cells were grown to 70% confluence in complete medium and then collected using trypsin-EDTA solution [0.05% trypsin, 0.53 mM EDTA-4Na in HBSS Ca^++, Mg^++ and NaHCO3 free]. cells were then centrifuged and washed three times with phosphate buffer solution and resuspended at a dilution of 0.1 to 1×10^6 cells/0.1 ml. […]

[3] = Toxicity in DA3 tumor-bearing BALB/c mice (body weight, mortality); conditions: given twice at 40 mg/kg, iv
Excerpt: Animal. Female BALB/c mice (Charles River Inc.) were used to grow DA3 tumors. Mice were maintained at the Lady Davis Institute [LDI] Animal Care Facility.
Treatment was initiated when tumors become palpable. Drug was given twice (day 1 and day 3) by iv. Control animals were given the same volume of saline solution. The dose of each drug was normalized to mouse body weight.
Tumor measurement. animals were examined every day but the tumor growth was monitored every second or third day using calipers. Parameters measured are: tumor measured along the longest axis (length) and the perpendicular shortest axis (width) and the relative tumor volume (in cm^3) was calculated by the formula: [Length (cm)×(width cm)^2]/2. Tumors which reach the limit size permitted by the Canadian regulation on the use of laboratory animals, or showing any apparent distress or discomfort were immediately sacrificed independently of the experimental protocol [usually 2-3 cm^3 but this depend on animal status and the decision is taken by the animal room personnel]. Animals were subjected, on a daily basis, to general examination.

[4] = system: tubulin; experiment: In vitro microtubule assay (tubulin polymerisation, absorbance at 350 nm); format: biochemical, calf; conditions: for concentration dependence of tubulin polymerisation: 5 μM and 10 μM (FIG. 2); for enhancement of tubulin polymerisation / antimitotic activity: same concentration (10 μM), FIG. 3; for tubulin polymerisation / antimitotic activity compared with paclitaxel: same concentration (FIGS. 1-4)
[5] = listed as semi-synthetic Canadensol

Structure (SMILES)	% (absorbance relative to control) ([1]; 0.2 nM) [%]	Abs. ([1]; 0.2 nM)	% (absorbance relative to control) ([1]; 2 nM) [%]	Abs. ([1]; 2 nM)	% (absorbance relative to control) ([1]; 10 nM) [%]	Abs. ([1]; 10 nM)	% (absorbance relative to control) ([1]; 20 nM) [%]	Abs. ([1]; 20 nM)	% (absorbance relative to control) ([1]; 100 nM) [%]	Abs. ([1]; 100 nM)	% (absorbance relative to control) ([1]; 200 nM) [%]	Abs. ([1]; 200 nM)	IC50 ([1]; Homo sapiens) [nM]	other results
CC(=O)OC1C(=O)[C@]2(C)C(O)CC3OCC3(OC(C)=O)C2C(OC(=O)c2ccccc2)C2(O)CC(OC(=O)C(O)C(NC(=O)C(C)C)c3ccccc3)C(C)=C1C2(C)C (some centres unmarked) [Canadensol]	100.00	1.598	94.12	1.504	77.97	1.246	50.81	0.812	1.63	0.026	1.13	0.018	21.3	inhibiting the growth of A2780 (comparison) ([1]; FIGS. 6, 7 and Table I): as active as paclitaxel or taxcultine; period in which antitumor effect was significant ([2]; given twice at 40 mg/kg, iv): significant from day 30 to day 40 of tumor growth; antitumor activity ([2]; given twice at 40 mg/kg, iv, FIG. 9): induce antitumor activity; toxic effect [3]: No toxic effect was observed; concentration dependence of tubulin polymerisation [4]: concentration dependent antimitotic effect; concentration dependence of tubulin polymerisation [4, 5]: dose-dependent response; enhancement of tubulin polymerisation / antimitotic activity [4]: more effective; enhancement of tubulin polymerisation / antimitotic activity [4, 5]: greater enhancement of tubulin polymerisation than semi-synthetic Taxcultine (ssT) or paclitaxel (P); tubulin polymerisation / antimitotic activity compared with paclitaxel [4]: more active than paclitaxel and taxcultine; also recorded: higher antimitotic activity than paclitaxel; tubulin polymerisation / antimitotic activity compared with paclitaxel [4, 5]: higher degree of tubulin polymerisation than Paclitaxel
CC(=O)O[C@H]1C(=O)[C@@]2(C)[C@H]([C@H](OC(=O)c3ccccc3)[C@]3(O)C[C@H](OC(=O)[C@H](O)[C@@H](NC(=O)c4ccccc4)c4ccccc4)C(C)=C1C3(C)C)[C@]1(OC(C)=O)CO[C@@H]1C[C@@H]2O [paclitaxel]	101.54	1.455	102.16	1.464	81.09	1.162	36.43	0.522	1.47	0.021	1.40	0.02	17	antitumor activity ([2]; tolerable doses (20-40 mg/Kg), iv day 1 and day 3): no significant antitumor activity
CCCC(=O)N[C@@H](c1ccccc1)[C@@H](O)C(=O)O[C@H]1C[C@@]2(O)[C@@H](OC(=O)c3ccccc3)[C@@H]3[C@]4(OC(C)=O)CO[C@@H]4C[C@H](O)[C@@]3(C)C(=O)[C@H](OC(C)=O)C(=C1C)C2(C)C [taxcultine]	100.00	1.535	100.07	1.536	71.21	1.093	36.09	0.554	2.08	0.032	1.43	0.022	–	IC50 [1]: 16 nM
